Source: patent US20100040666A1, “Method for Control of Drug Elution Rate and Composition for Coating of Drug-Eluting Stent” (priority 2005, published 2010)

Experiment: Elution test of compound represented by structural formula (2) from poly (MPC-co-BMA)
Format: physicochemical
Details: thin plate of stainless steel coated sequentially with compositions of Examples 1 to 3, immersed in distilled water
Experimental: Test 2: Elution Test of Compound Represented by Structural Formula (2)
The elution test of the compound represented by the structural formula (2) from poly (MPC-co-BMA) was conducted. The test sample was prepared by coating sequentially the compositions from Examples 1 to 3 to a thin plate of stainless steel. The prepared sample was immersed in distilled water, and then the amount of the eluted compound represented by the structural formula (2) was measured with time.
It can be verified that the compound represented by the structural formula (2) is eluted for about 100 hours. In addition, even after 100 hours, the compound represented by the structural formula (2) is eluted gradually for 400 hours, and thus it can be verified that controlled release is intended.

CCOc1cccc(C(CC)n2nc(C(=O)O)c3c2-c2ccc(OCc4cncnc4)cc2CC3)c1 (centres unmarked) [structural formula (2)]
time for which the compound is eluted (cumulative eluted amount, FIG. 3): about 100 hours | time for which the compound is eluted gradually, even after 100 hours (controlled release): 400 h
